Data from patent US20250228756A1, “Anhydrous Urea Emulsions with a Retinoid Agent” (Baek Clinical Inc., priority 2021, published 2025).
Read-outs that look alike come from different tables or passages of the source. Each block holds one molecule with its values, some of them ahead of it.

Experiments:
[1] = Assessment of formulation components: solubility in non-aqueous solvents; format: physicochemical
Description: A series of experiments were performed to assess and optimize the components of the subject formulations. AA refers to L-ascorbic acid. U refers to urea. % values are wt %.
Additional ingredients were chosen for their compatibility with (e.g., miscibility in) 1,3 propanediol, 1,2 propanediol, and 1,3 butanediol.

[2] = in most solvents; cited from earlier work
skin [3] = details: cited from earlier work
skin [4] = details: concentrations of 0.2%; clinical data from SEPPIC; cited from earlier work

Molecule: CC1(C)[C@@H](O[C@H]2O[C@H](C(=O)O)[C@@H](O)[C@H](O)[C@H]2O[C@@H]2O[C@H](C(=O)O)[C@@H](O)[C@H](O)[C@H]2O)CC[C@]2(C)[C@H]3C(=O)C=C4[C@@H]5C[C@@](C)(C(=O)O)CC[C@]5(C)CC[C@@]4(C)[C@]3(C)CC[C@@H]12 [glycyrrhizic acid, Glycyrrhizic acid]
solubility ([1]; in 1,3-propanediol): shows solubility

Molecule: CC(C)(CO)[C@@H](O)C(=O)NCCCO [Panthenol]
concentration at which inhibition of transepidermal water loss is apparent (skin [3]): ≥ 1%

Molecule: Madecassoside
solubility ([1]; at a concentration of 0.2% in 1,3 propanediol, 1,2 propanediol and 1,3 butanediol): soluble
ability to reduce erythema (skin redness) (skin [4]): desirable ability to reduce erythema

Further lines, with some results ahead:

change of solubility by the presence of hydroxyethyl urea ([1]; in 1,3 propanediol): slightly increased
concentration that can be solubilized ([1]; in 1,3 propanediol): up to 10%
concentration that is possible to solubilize ([1]; with 10% AA, 5% U in a 1,3 propanediol base): 7.5%
Molecule: O=C(O)CCCCCCCC(=O)O [AzA, Azelaic acid, reference compound]
solubility [2]: very poorly soluble

solubility ([1]; in 1,3 propanediol, 1,2 propanediol and 1,3 butanediol at the desired concentrations (0.5-1%)): readily soluble
Molecule: COc1cc(CC(C(C)=O)C(C)=O)ccc1O [Acetyl zingerone]

ability of solvent to solubilize urea ([1]; solvent 1,2-hexanediol): moderate
ability of solvent to solubilize urea ([1]; solvent 1,2-propanediol (propylene glycol)): moderate
ability of solvent to solubilize urea ([1]; solvent 1,3-butanediol (butylene glycol)): moderate
ability of solvent to solubilize urea ([1]; solvent 1,3-propanediol): moderate
ability of solvent to solubilize urea ([1]; solvent 1,5-pentanediol, otherwise referred to as pentylene glycol): moderate
ability of solvent to solubilize urea ([1]; solvent dimethyl isosorbide): very limited
ability of solvent to solubilize urea ([1]; solvents glycerin and diglycerin): moderate
Molecule: NC(N)=O [urea]
